Results taken from patent US12139558B2, “Method of manufacturing a pharmaceutical composition” (Ferring B.V., priority 2017, dated 2024).
Values belong to the molecule of their own block, whether it stands above or below them. Starred links: 1 amine or outer side, 2 acyl side, 3 side chain; linkers in the order of their positions; H or OH if unused. Positions of bridges follow the written chain, without caps; N, C: chain ends. Residues, ends and D or L forms follow the SMILES beside them. X1 = O=C(CCC[*:2])[*:1]

Tests used:
[1] = type: physicochemical
Description: The next day the solids were analysed by HPLC for purity and assay (FIG. 3b), TG/DTA for ease of mass loss/thermal events (FIG. 4b) as well as polarised light microscopy (PLM) and XRPD for morphology and crystalline content. […] These mass losses correspond to weakly surface bound acetonitrile and water, and are not indicative of any solvation of the crystal form itself.

[2] = Gravimetric vapour sorption (GVS) of crystals; type: physicochemical; settings: 25° C.
Description: Gravimetric vapour sorption (GVS) was performed on an SMS DVS-1. 1.4 mg of crystals and powder were added into an Al pan and exposed to stepwise relative humidity (RH) changes during two consecutive cycles: 20-30-40-50-60-70-80-70-60-50-40-30-20-10-0-10-20-30-40-50-60-70-80-90-80-70-60-50-40-30-20-10-0% RH in an open loop mode. The temperature was maintained at 25° C. and pure nitrogen flow rate of 200 ml/min was used. The dm/dt criteria applied was 0.001 weight-%/min during a 5 minute window, with a maximum time of 150 minutes for all steps, with the exception of steps at 0% RH that were set to 6 hours.

[3] = test system: Prader-Willi Syndrome patients; settings: after 15 days, vs placebo treated patients; cited from earlier work

- total mass loss (TG/DTA) ([1]; up to 110° C., crystals of Example 4, FIG. 4b): approximately 0.8%
- first mass loss (TG/DTA) ([1]; up to approximately 60° C., weakly surface bound acetonitrile and water): approximately 0.5%
- second mass loss (TG/DTA) ([1]; up to approximately 110° C., weakly surface bound acetonitrile and water): approximately 0.3%
SMILES: CC[C@H](C)[C@@H]1NC(=O)[C@H](Cc2ccc(OC)cc2)NC(=O)CCCSC[C@@H](C(=O)N2CCC[C@H]2C(=O)N[C@@H](CC(C)C)C(=O)NCC(N)=O)NC(=O)[C@H](CC(N)=O)NC(=O)[C@H](CCC(N)=O)NC1=O [Form II, carbetocin] (Y(Me)IQNCPLG-NH2; linker N-5 via X1)

- GVS isotherm plateau (monohydrate plus some loosely bound surface water) ([2]; crystals of Example 5, FIG. 8b): around 2 % (w/w)
- GVS second plateau, additional (pentahydrate with some loosely bound surface water) ([2]; crystals of Example 5, FIG. 8b): approximately 8 % (w/w)
- relative humidity at which the pentahydrate exists ([2]; sorption): ≥ 60 % RH
SMILES: CC[C@H](C)[C@@H]1NC(=O)[C@H](Cc2ccc(OC)cc2)NC(=O)CCCSC[C@@H](C(=O)N2CCC[C@H]2C(=O)N[C@@H](CC(C)C)C(=O)NCC(N)=O)NC(=O)[C@H](CC(N)=O)NC(=O)[C@H](CCC(N)=O)NC1=O [Form III, carbetocin] (Y(Me)IQNCPLG-NH2; linker N-5 via X1)

SMILES: CC[C@H](C)[C@@H]1NC(=O)[C@H](Cc2ccc(OC)cc2)NC(=O)CCCSC[C@@H](C(=O)N2CCC[C@H]2C(=O)N[C@@H](CC(C)C)C(=O)NCC(N)=O)NC(=O)[C@H](CC(N)=O)NC(=O)[C@H](CCC(N)=O)NC1=O [carbetocin, 1-butanoic acid-2-(O-methyl-L-tyrosine)-1-carbaoxytocin] (Y(Me)IQNCPLG-NH2; linker N-5 via X1)
- improvement over placebo in measurements of hyperphagia, obsessive compulsive disorder, food seeking behaviour and clinical global impression [3]: statistically significant improvement over placebo treated patients
